Measured values published in the supplement of paper PMC10878532, “Sperm Toolbox—A selection of small molecules to study human spermatozoa” (PLOS ONE, 2024).

Assays:
HeLa [1] = assay: HeLa toxicity: nuclei-count effect normalised to DMSO (DMSO = 0); higher = more features changed / larger toxic effect; details: incubation time: 24h incubation
HeLa [2] = assay: Cell Painting percent induction (share of features beyond 2 z-scores vs DMSO); higher = more features changed / larger toxic effect; extreme values may be limits of the assay; details: incubation time: 24h incubation
human spermatozoa [3] = assay: viability fold change, 1 - (PI-positive fraction / DMSO median); higher = more of the measured sperm population than DMSO, for viability, fewer PI-positive (dead) cells than DMSO; details: incubation time: 3h, non-capacitating
human spermatozoa [4] = assay: total motile sperm, percent change vs DMSO (non-capacitating); higher = more of the measured sperm population than DMSO, for viability, fewer PI-positive (dead) cells than DMSO
human spermatozoa [5] = assay: hyperactivated motile sperm, percent change vs DMSO (capacitating); higher = more of the measured sperm population than DMSO, for viability, fewer PI-positive (dead) cells than DMSO; details: incubation time: 30min incubation
human spermatozoa [6] = assay: progressively motile sperm, percent change vs DMSO (capacitating); higher = more of the measured sperm population than DMSO, for viability, fewer PI-positive (dead) cells than DMSO; details: incubation time: 30min incubation
human spermatozoa [7] = assay: change in acrosome-reacted (PNA+) sperm vs DMSO, no agonist (capacitating); higher = more of the measured sperm population than DMSO, for viability, fewer PI-positive (dead) cells than DMSO; details: incubation time: 3h
human spermatozoa [8] = assay: progressively motile sperm, percent change vs DMSO (non-capacitating); higher = more of the measured sperm population than DMSO, for viability, fewer PI-positive (dead) cells than DMSO; extreme values may be limits of the assay
human spermatozoa [9] = assay: acrosome-reacted (PNA+) sperm after agonist cocktail, percent change vs DMSO (capacitating); higher = more of the measured sperm population than DMSO, for viability, fewer PI-positive (dead) cells than DMSO; details: incubation time: 3h, capacitating + agonist cocktail 1h
HepG2 = HepG2 toxicity (resazurin), effect normalised to DMSO (DMSO = 0); higher = more features changed / larger toxic effect; details: incubation time: 70h incubation
[10] = incubation time: 10min incubation, 9.99 µM
[11] = incubation time: 10min incubation, 29.9 µM
[12] = incubation time: 3h incubation, 9.99 µM
[13] = incubation time: 3h incubation, 29.9 µM
[14] = incubation time: 6h incubation, 9.99 µM
[15] = incubation time: 6h incubation, 29.9 µM
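For progressively motile sperm, percent change vs DMSO (non-capacitating) in this document: pooled live human sperm from at least 3 donors, tracked by automated microscopy in 0.5 s time-lapse movies, compounds at 10 and 30 µM, versus median of 16 DMSO wells per plate.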
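For total motile sperm, percent change vs DMSO (non-capacitating) in this document: sperm pooled from at least 3 donors, tracked in 0.5 s time-lapse movies by automated microscopy after 10 min, 3 h or 6 h with compound at 10 or 30 µM.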

SMILES | HeLa toxicity: nuclei-count effect normalised (HeLa [1]; 9.99 µM) | HeLa toxicity: nuclei-count effect normalised (HeLa [1]; 29.9 µM) | Cell Painting percent induction (HeLa [2]; 9.99 µM) | Cell Painting percent induction (HeLa [2]; 29.9 µM) | viability fold change (human spermatozoa [3]; 9.99 µM) | viability fold change (human spermatozoa [3]; 29.9 µM) | total motile sperm (human spermatozoa [4]; [10]) | total motile sperm (human spermatozoa [4]; [11]) | total motile sperm (human spermatozoa [4]; [12]) | total motile sperm (human spermatozoa [4]; [13]) | total motile sperm (human spermatozoa [4]; [14]) | total motile sperm (human spermatozoa [4]; [15]) | hyperactivated motile sperm (human spermatozoa [5]; 9.99 µM) | hyperactivated motile sperm (human spermatozoa [5]; 29.9 µM) | progressively motile sperm (human spermatozoa [6]; 9.99 µM) | progressively motile sperm (human spermatozoa [6]; 29.9 µM) | change in acrosome-reacted (human spermatozoa [7]; 9.99 µM) | change in acrosome-reacted (human spermatozoa [7]; 29.9 µM) | progressively motile sperm (human spermatozoa [8]; [10]) | progressively motile sperm (human spermatozoa [8]; [11]) | progressively motile sperm (human spermatozoa [8]; [12]) | progressively motile sperm (human spermatozoa [8]; [13]) | progressively motile sperm (human spermatozoa [8]; [14]) | progressively motile sperm (human spermatozoa [8]; [15]) | acrosome-reacted (human spermatozoa [9]; 9.99 µM) | acrosome-reacted (human spermatozoa [9]; 29.9 µM) | HepG2 toxicity (HepG2; 10 µM) | HepG2 toxicity (HepG2; 30 µM)
Cc1ccc(S(=O)(=O)c2c(N)n(CC(O)c3ccc([N+](=O)[O-])cc3)c3nc4ccccc4nc23)cc1 (stereo unspecified) | 9.49% | 44.6% | 0.072% | 0.648% | -0.179 | 0.2 | 1.39% | 2.71% | 1.22% | -9.75% | -1.06% | -11.3% | 2.52% | -33% | 7.62% | 16.1% | 0.985% | 1.51% | 8.38% | 7.14% | 40.6% | 20.1% | 45.4% | 24.6% | 22.3% | 49.7% |  | 
COc1ccc(CCCN2CCC(COC(c3ccccc3)c3ccccc3)CC2)cc1 | 11.7% | 80.9% | 0% | 10.8% | -1.38 | -1.52 | -0.81% | 2.28% | 0.77% | -5.61% | -0.213% | -15.3% | -18.3% | -70.2% | -2.66% | -7.92% | 1.43% | 2.85% | 1.8% | -4.83% | 20% | -8.53% | 32.7% | -19.4% | 4.02% | 18.6% | 1.6% | 103%
Cc1[nH]c(/C=C2\C(=O)Nc3ccc(S(=O)(=O)Cc4c(Cl)cccc4Cl)cc32)c(C)c1C(=O)N1CCC[C@@H]1CN1CCCC1 | 94.7% | 92.9% | 20.4% | 17.5% | -3.34 | -3.76 | -0.103% | -18.4% | -9.66% | -49.8% | -12.2% | -57.4% | -20.8% | -80.4% | -3.18% | -76.5% | 3.55% | 20.4% | 6.38% | -35.3% | 20.9% | -68.2% | 18.6% | -82% | -1.2% | 30.3% | 102% | 103%
COC(=O)c1c(C)[nH]c(C)c1C(=O)c1ccccc1Cc1ccccc1 | 4.01% | 0.735% | 0% | 0.18% | 0.0191 | -0.102 | 0.541% | -1.51% | -6.62% | -4.77% | -5.32% | -5.3% | 21.1% | -0.915% | 13.4% | 14.7% | 0.874% | 0.596% | -1.68% | -2.66% | 4.27% | -4.02% | 12.6% | 4.09% | 25.4% | 48.8% | -4.33% | 10.6%
CC(C)(C)c1ccc(S(=O)(=O)Nc2cnc3[nH]c(C(=O)N[C@H]4CCC[C@H]4O)c(-c4ccccc4)c3c2)cc1 |  |  |  |  | 0.0771 | 0.0653 | -3.11% | 0.824% | 2.99% | -0.471% | -0.468% | -0.141% | -89.9% | -90.6% | -49.7% | -49.4% | 0.406% | 0.723% | -18.5% | -14% | -13% | -11.7% | -9.71% | -14.5% | -55.5% | -40.6% | 3.81% | 16.8%
CNc1ccc2oc(C[C@H]3O[C@@]4(CC[C@H]3C)O[C@H]([C@H](C)C(=O)c3ccc[nH]3)[C@H](C)C[C@H]4C)nc2c1C(=O)O | 79.6% | 94.7% | 1.33% | 14.5% | -2.53 | -2.38 | -57.2% | -78.3% | -89.9% | -93.5% | -92% | -94.3% | -68.5% | -83.7% | -89.8% | -99.9% | 45.3% | 46.5% | -82.5% | -97.5% | -99.9% | -100% | -99.9% | -100% | 106% | 106% | 99.9% | 102%
COc1cc2ncn(-c3cc(OCc4ccccc4C(F)(F)F)c(C(N)=O)s3)c2cc1OC | 78.2% | 78.9% | 2.81% | 2.27% | -1.45 | -1.24 | -14.5% | -45.8% | -27.6% | -55.7% | -30.1% | -57.1% | 157% | 59.7% | -3.24% | -34.8% | 0.45% | -0.12% | 16.5% | -45.9% | 26.5% | -69.6% | 43.2% | -68.4% | 123% | 120% | 17.5% | 9.88%
O=C(N1CCCCC1)N1CCCCC1Cc1ccccc1 (stereo unspecified) | -3.81% | -5.74% | 0% | 0% | 0.104 | -0.0769 | -0.235% | 4.54% | -3.63% | 0.0877% | -4.64% | -4.36% | 6.11% | 3.93% | 9.35% | 20.1% |  |  | -0.571% | 5.81% | 19.1% | 18.1% | 17.3% | 16.4% | 6.47% | 7.82% | 5.44% | -4.3%
